Each structure is given as a SMILES string.

The nature of data set [1]: Photophysical parameters in OPTI-MEM media, cell supernatant and HeLa cells. It is filed as physicochemical. How it is done: The Yb^3+[Zn(II)MCpyzHA] complexes were dissolved in OPTI-MEM® medium with 2% SVF (without cells) and were incorporated in HeLa cells, both with and without exposure to UV light. The results in are shown in FIG. 20, (A) (corrected and normalized excitation) and FIG. 20, (B) (corrected and normalized emission). […] The present inventors developed instrumentation in order to collect photophysical properties of MCs inside of cancer cells. They measured quantitative photophysical parameters (quantum yields and life times) inside of the cells with equipment which is usually adapted for measuring of (quantum yields and life times) in solids or in concentrated solutions.
The Yb^3+[Zn(II)MCpyzHA] complexes were collected together with cell supernatant (SN) and with HeLa cells treated with N-acetyl cysteine, both with and without exposure to UV light. For SN1 and cells1, incubation with NAC took place for 30 minutes, then the cells were washed, and incubation with Yb^3+[Zn(II)MCpyzHA] took place for 15 minutes. For SN2 and cells2, incubation with Yb^3+[Zn(II)MCpyzHA] took place for 15 minutes, and then NAC was added and incubation with NAC took place for 30 minutes. The results in are shown in FIGS. 20C (corrected and normalized excitation) and 20D (corrected and normalized emission). […]

The nature of data set [2]: Photophysical properties of the metallacrowns in solid state and in aqueous solutions. It is filed as physicochemical.
Data set [3] concerns HeLa cells. In words: NIR epifluorescence microscopy of HeLa cells (necrotic cell labelling, simultaneous staining and fixing). It is filed as cell-based, Human.
Data set [4] can be described thus: Photophysical properties of the metallacrowns in solid state and in aqueous solutions. The format is physicochemical. Conditions: room temperature, excitation at 370 nm. How it is done: FIG. 4. illustrates the normalized excitation (λem(Nd^3+)=1070 nm, λem(Yb^3+)=980 nm) and emission (λex=370 nm) spectra of Yb^3+[Zn(II)MCpyzHA], at the top, and Nd^3+[Zn(II)MCpyzHA] MCs, at the bottom, (solid or 200 μM solutions, room temperature).

The nature of data set [5]: Photostability stress tests. The format is physicochemical. As to the method:
Photostability stress tests of Yb^3+[Zn(II)MCpyzHA] (Yb λem=980 nm) and Nd^3+[Zn(II)MCpyzHA] (Nd λem=1064 nm) and the commercially available dye for necrotic cells (Propidium Iodide) were performed. The complexes (150 μM) or dye (50 μM) were dissolved in water and the complexes were also dissolved in OPTI-MEM® media. The MC solutions were exposed to 5 hours of UV radiation (377 nm). The propidium iodide solution was exposed to 5 hours of UV radiation (530 nm).

Data set [6] relates to HeLa cells. In words: NIR epifluorescence microscopy of HeLa cells (necrotic cell labelling, simultaneous staining and fixing). It is filed as cell-based, Human. As to conditions: 150 μM complex and 3 μM propidium iodide together, UV light (377 nm) 5 minutes. As to the method:
Cells were seeded in a 8-well Lab Tek Chamber coverglass (Nunc, Dutsher S.A., Brumath, France) at a density of 6×10^4 cells/well and cultured at 37° C. in 5% humidified CO2 atmosphere.
The continued incubation enabled the internalization of the complexes.
All of the previously mentioned incubated HeLa cells were then washed with fresh OPTI-MEM® media and were incubated with 3 μM propidium iodide for 5 minutes. Propidium iodide is a commercially available stain (emitting in the visible range) for necrotic cells, and was used to confirm cell necrosis.
i. 377 nm with 50 nm band-pass filter with 50 nm bandwidth for the excitation and 805 nm long-pass filter 805 nm or 996 nm band-pass filter with 70 nm bandwidth for YbIII emission in the NIR range.
ii. […] for the excitation and 805 nm long-pass filter 805 nm or 996 nm band-pass filter with 70 nm bandwidth for YbIII emission in the NIR range. […]

The mark [7] stands for this setting: Table 3, No UV: After 5 h incubation with HeLa cells without illumination.
[8] abbreviates: Table 3, UV: After 5 h incubation with HeLa cells with UV illumination (during 8 min).

On to `O=C([N-][O-])c1cnccn1.O=C([N-][O-])c1cnccn1.O=C([N-][O-])c1cnccn1.O=C([N-][O-])c1cnccn1.O=C([N-][O-])c1cnccn1.O=C([N-][O-])c1cnccn1.O=C([N-][O-])c1cnccn1.O=C([N-][O-])c1cnccn1.O=C([N-][O-])c1cnccn1.O=C([N-][O-])c1cnccn1.O=C([N-][O-])c1cnccn1.O=C([N-][O-])c1cnccn1.O=C([N-][O-])c1cnccn1.O=C([N-][O-])c1cnccn1.O=C([N-][O-])c1cnccn1.O=C([N-][O-])c1cnccn1.O=S(=O)([O-])C(F)(F)F.O=S(=O)([O-])C(F)(F)F.O=S(=O)([O-])C(F)(F)F.[Nd+3].[Zn+2].[Zn+2].[Zn+2].[Zn+2].[Zn+2].[Zn+2].[Zn+2].[Zn+2].[Zn+2].[Zn+2].[Zn+2].[Zn+2].[Zn+2].[Zn+2].[Zn+2].[Zn+2].c1ccncc1.c1ccncc1.c1ccncc1.c1ccncc1.c1ccncc1.c1ccncc1.c1ccncc1.c1ccncc1` [Nd^3+[Zn(II)MCpyzHA]], for which, in data set [1] (Table 3, In HeLa cells), the τ2 is reported as 0.808(8) μs and the “τ2 contribution (longer component)” value turned out to be 100%. For the same compound, in data set [1] (setting [7]), the Quantum yield was 7.50(5) · 10^−3%, the τ1 is recorded as 0.261(1) μs, the τ1 contribution was determined as 85% and the τ2 is recorded as 0.98(1) μs. In data set [1] (setting [7]), the τ2 contribution came out at 15%. Also, in data set [1] (Table 3, OptiMEM), the Quantum yield is given as 7.33(1) · 10^−3%, the τ1 is reported as 0.256(6) μs, the τ1 contribution came to 90% and the τ2 is 1.1(1) μs. For the same compound, the τ2 contribution in data set [1] (Table 3, OptiMEM) was 10%. Further, in data set [1] (Table 3, OptiMEM-UV 1 h 30 min), the Quantum yield was 7.7(1) · 10^−3%, the τ1 is given as 0.352(2) μs, the τ1 contribution is 67% and the τ2 was 0.874(7) μs. This compound yielded a τ2 contribution in data set [1] (Table 3, OptiMEM-UV 1 h 30 min) of 33%. Also, in data set [1] (setting [8]), the Quantum yield is given as 6.2(1) · 10^−3%, the τ1 is given as 0.376(3) μs, the τ1 contribution was 60% and the τ2 is reported as 0.83(2) μs. For the same compound, the τ2 contribution in data set [1] (setting [8]) came to 40%. Besides, the “Change of luminescent properties in media, cell supernatant or HeLa cells” value in data set [1] (with/without exposure to UV light) is on record as “did not change in OPTI-MEM® media or inside of the HeLa cells”. In addition, the “τ (luminescence lifetime), D2O” value in data set [2] (200 μM in D2O, room temperature, excitation at 355 nm) is 1.29(1) μs. For the same compound, the “τ (luminescence lifetime), H2O” value in data set [2] (200 μM in H2O, room temperature, excitation at 355 nm) is 0.214(4) μs. Also, the “q (number of coordinated water molecules)” value in data set [2] (calculated from lifetimes, estimated error ±0.2) was 0.1. The “τ (luminescence lifetime), Solid” value in data set [2] (solid state, room temperature, excitation at 355 nm) is listed as 1.71(1) μs. Moreover, the “Fixing and staining of HeLa cells” value in the data set on HeLa cells [3] (150 μM, 15 minutes, UV light (377 nm) 8 minutes, further 1 hour) was “fixed and stained”. The “Q (quantum yield), D2O” value in data set [4] (200 μM in D2O) is 6.17(9) · 10^−2%. The “Q (quantum yield), H2O” value in data set [4] (200 μM in H2O) is 7.7(1) · 10^−3%. Besides, the “Q (quantum yield), Solid” value in data set [4] (solid state) is listed as 0.444(9) %. The Photostability result in data set [5] (150 μM in water and OPTI-MEM media, 5 hours of irradiation with 377 nm light) was “fully photostable”.

For `CC[N+](C)(CC)CCC[n+]1c(-c2ccccc2)c2cc(N)ccc2c2ccc(N)cc21.[I-].[I-]` [propidium iodide, reference compound], the “Specificity of the dye for cell state” value with HeLa cells [3] (150 μM complex and 3 μM propidium iodide together, UV light (377 nm) 5 minutes) was “specific for dead and apoptotic cells”. Moreover, in the data set with HeLa cells [6], the “Incubation time after which emission was observed in cells after UV illumination” value is on record as 15 min. For the same compound, the “Photostability (fluorescence intensity)” value in data set [5] (50 μM in water, 5 hours of irradiation at 530 nm) is given as “dropped half of its initial intensity”.

The record behind these values is patent US10359430B2, “Selective near-infrared optical imaging of necrotic cells and simultaneous cell fixing and counter staining with metallacrown complexes” (THE REGENTS OF THE UNIVERSITY OF MICHIGAN, priority 2015, dated 2019).
